Patent publication US10435401B2, “Pesticidally active tetracyclic derivatives with sulphur containing substituents” (Syngenta Participations AG, priority 2014, dated 2019)

Columns and labels:
Format in all cases: in vivo
[1] = test system: Myzus persicae (Green Peach Aphid); assay: Myzus persicae intrinsic activity; details: 120 h, test rate of 12 ppm, compound in sucrose solution under Parafilm, 5 days after infestation
From the text: Example B7: Myzus persicae (Green Peach Aphid): Intrinsic Activity
Test compounds from 10′000 ppm DMSO stock solutions were applied by pipette into 24-well microtiter plates and mixed with sucrose solution. The plates were closed with a stretched Parafilm. A plastic stencil with 24 holes was placed onto the plate and infested pea seedlings were placed directly on the Parafilm. The infested plate was closed with a gel blotting paper and another plastic stencil and then turned upside down. The samples were assessed for mortality 5 days after infestation.

[2] = test system: Myzus persicae (Green Peach Aphid); assay: Myzus persicae feeding/contact activity; details: foliar, 144 h, application rate of 200 ppm, aphid population of mixed ages on sprayed sunflower leaf discs, 6 days after infestation
Description: Example B5: Myzus persicae (Green Peach Aphid): Feeding/Contact Activity
Sunflower leaf discs were placed on agar in a 24-well microtiter plate and sprayed with aqueous test solutions prepared from 10′000 ppm DMSO stock solutions. After drying, the leaf discs were infested with an aphid population of mixed ages. The samples were assessed for mortality 6 days after infestation.

[3] = test system: Spodoptera littoralis (Egyptian Cotton Leaf Worm); assay: Spodoptera littoralis feeding/contact activity; details: foliar, 72 h, application rate of 200 ppm, L1 larvae on sprayed cotton leaf discs, 3 days after infestation, read-out: control (at least one of mortality, anti-feedant effect, growth inhibition)
Description: Example B9: Spodoptera littoralis (Egyptian Cotton Leaf Worm): Feeding/Contact Activity
Cotton leaf discs were placed on agar in 24-well microtiter plates and sprayed with aqueous test solutions prepared from 10′000 ppm DMSO stock solutions. After drying the leaf discs were infested with five L1 larvae. The samples were assessed for mortality, anti-feedant effect, and growth inhibition in comparison to untreated samples 3 days after infestation. Control of Spodoptera littoralis by a test sample is when at least one of mortality, anti-feedant effect, and growth inhibition is higher than the untreated sample.

[4] = test system: Spodoptera littoralis (Egyptian Cotton Leaf Worm); assay: Spodoptera littoralis systemic activity; details: 144 h, test rate of 12.5 ppm, compound in agar taken up by lettuce roots, 6 days after infestation, read-out: effect in at least one of the three categories (mortality, anti-feedancy, or growth inhibition)
Description: Example B10: Spodoptera littoralis (Egyptian Cotton Leaf Worm): Systemic Activity
Test compounds were applied by pipette from 10′000 ppm DMSO stock solutions into 24-well plates and mixed with agar. […] […] […] Spodoptera eggs were pipetted through a plastic stencil on a humid gel blotting paper and the plate closed with it. The samples were assessed for mortality, anti-feedant effect and growth inhibition in comparison to untreated samples 6 days after infestation.

[5] = test system: Plutella xylostella (Diamond Back Moth); assay: Plutella xylostella feeding/contact activity; details: 120 h, application rate of 200 ppm, L2 larvae on treated artificial diet, 5 days after infestation, read-out: effect in at least one of the two categories (mortality or growth inhibition)
Description: Example B8: Plutella xylostella (Diamond Back Moth): Feeding/Contact Activity
24-well microtiter plates with artificial diet were treated with aqueous test solutions prepared from 10′000 ppm DMSO stock solutions by pipetting. After drying, the plates were infested with L2 larvae (10 to 15 per well). The samples were assessed for mortality and growth inhibition in comparison to untreated samples 5 days after infestation.

[6] = test system: Diabrotica balteata (Corn Root Worm); assay: Diabrotica balteata feeding/contact activity; details: 96 h, application rate of 200 ppm, L2 larvae on sprayed maize sprouts, 4 days after infestation
Description: Example B2: Diabrotica balteata (Corn Root Worm): Feeding/Contact Activity
Maize sprouts, placed on an agar layer in 24-well microtiter plates were treated with aqueous test solutions prepared from 10′000 ppm DMSO stock solutions by spraying. After drying, the plates were infested with L2 larvae (6 to 10 per well). The samples were assessed for mortality and growth inhibition in comparison to untreated samples 4 days after infestation.

[7] = test system: Myzus persicae (Green Peach Aphid); assay: Myzus persicae systemic activity; details: 144 h, test rate of 24 ppm, roots of infested pea seedlings in test solution, 6 days
Description: Example B6: Myzus persicae (Green Peach Aphid): Systemic Activity
Roots of pea seedlings infested with an aphid population of mixed ages were placed directly in the aqueous test solutions prepared from 10′000 ppm DMSO stock solutions. The samples were assessed for mortality 6 days after placing seedlings in test solutions.

[8] = test system: Frankliniella occidentalis (Western Flower Thrips); assay: Frankliniella occidentalis feeding/contact activity; details: foliar, 168 h, application rate of 200 ppm, population of mixed ages on sprayed sunflower leaf discs, 7 days after infestation
Description: Example B4: Frankliniella occidentalis (Western Flower Thrips): Feeding/Contact Activity
Sunflower leaf discs were placed on agar in 24-well microtiter plates and sprayed with aqueous test solutions prepared from […] stock solutions. After drying the leaf discs were infested with a Frankliniella population of mixed ages. The samples were assessed for mortality 7 days after infestation.

[9] = test system: Bemisia tabaci (Cotton White Fly); assay: Bemisia tabaci feeding/contact activity; details: foliar, 144 h, application rate of 200 ppm, adult white flies on sprayed cotton leaf discs, 6 days after incubation
Description: Example B1: Bemisia tabaci (Cotton White Fly): Feeding/Contact Activity
Cotton leaf discs were placed on agar in 24-well microtiter plates and sprayed with aqueous test solutions prepared from 10′000 ppm DMSO stock solutions. After drying the leaf discs were infested with adult white flies. The samples were checked for mortality 6 days after incubation.

[10] = test system: Aedes aegypti (Yellow Fever Mosquito); assay: whole plant or invertebrate; details: 48 h, test rate of 5 ppm, L2 larvae in 96-well plates, 2 days incubation, read-out: effect in at least one of the two categories (mortality or growth inhibition)
Description: Example B12: Aedes aegypti (Yellow Fever Mosquito): Feeding Contact Activity
10 to 15 Aedes larvae (L2) together with a nutrition mixture were placed in 96-well microtiter plates. Test compounds were pipetted into the wells. After an incubation period of 2 days insects were assessed for mortality and growth inhibition.

[11] = test system: Tetranychus urticae (Two-Spotted Spider Mite); assay: Tetranychus urticae feeding/contact activity; details: foliar, 192 h, application rate of 200 ppm, mite population of mixed ages (mobile stages) on sprayed bean leaf discs, 8 days after infestation
Description: Example B11: Tetranychus urticae (Two-Spotted Spider Mite):Feeding/Contact Activity
Bean leaf discs on agar in 24-well microtiter plates were sprayed with aqueous test solutions prepared from 10′000 ppm DMSO stock solutions. After drying the leaf discs were infested with a mite population of mixed ages. The samples were assessed for mortality on mixed population (mobile stages) 8 days after infestation.

[12] = test system: Euschistus heros (Neotropical Brown Stink Bug); assay: Euschistus heros feeding/contact activity; details: 120 h, application rate of 200 ppm, N-2 nymphs on sprayed soybean leaf, 5 days after infestation, read-out: effect in at least one of the two categories (mortality or growth inhibition)
Description: Example B3: Euschistus heros (Neotropical Brown Stink Bug): Feeding/Contact Activity
Soybean leaf on agar in 24-well microtiter plates were sprayed with aqueous test solutions prepared from 10′000 ppm DMSO stock solutions. After drying the leaf were infested with N-2 nymphs. The samples were assessed for growth inhibition in comparison to untreated samples 5 days after infestation.

CCS(=O)(=O)c1cc(C(F)(F)F)cnc1-c1nc2cc(C3CC3)cnc2n1C [Compound P1, 6-cyclopropyl-2-[3-ethylsulfonyl-5-(trifluoromethyl)-2-pyridyl]-3-methyl-imidazo[4,5-b]pyridine]
≥ 80%: mortality at 12 ppm [1]

CCS(=O)(=O)c1cc(C(F)(F)F)cnc1-c1nc2cc(C3(C#N)CC3)cnc2n1C [Compound P2, 1-[2-[3-ethylsulfonyl-5-(trifluoromethyl)-2-pyridyl]-3-methyl-imidazo[4,5-b]pyridin-6-yl]cyclopropanecarbonitrile]
≥ 80%: mortality at 200 ppm [2] | percent control (mortality, anti-feedant effect or growth inhibition) at 200 ppm [3] | percent control (mortality, anti-feedancy or growth inhibition) at 12.5 ppm [4] | percent effect (mortality or growth inhibition) at 200 ppm [5] | mortality at 200 ppm [6] | mortality at 24 ppm [7] | mortality at 200 ppm [8] | mortality at 200 ppm [9] | mortality at 12 ppm [1] | percent effect (mortality or growth inhibition) at 5 ppm [10]

CCS(=O)(=O)c1cc(C(F)(F)F)cnc1-c1nc2cc(C3(C#N)CCC3)cnc2n1C [Compound P3, 1-[2-[3-ethylsulfonyl-5-(trifluoromethyl)-2-pyridyl]-3-methyl-imidazo[4,5-b]pyridin-6-yl]cyclobutanecarbonitrile]
≥ 80%: mortality at 200 ppm [6]

CCS(=O)(=O)c1cc(C(F)(F)F)cnc1-c1nc2cc(C3CC3C#N)cnc2n1C (stereo not drawn) [Compound P4, 2-[2-[3-ethylsulfonyl-5-(trifluoromethyl)-2-pyridyl]-3-methyl-imidazo[4,5-b]pyridin-6-yl]cyclopropanecarbonitrile]
≥ 80%: mortality at 200 ppm [11]

CCS(=O)(=O)c1cc(C(F)(F)F)cnc1-c1nc2cc(C3CC3(C)C#N)cnc2n1C (stereo not drawn) [Compound P5, 2-[2-[3-ethylsulfonyl-5-(trifluoromethyl)-2-pyridyl]-3-methyl-imidazo[4,5-b]pyridin-6-yl]-1-methyl-cyclopropanecarbonitrile]
≥ 80%: percent control (mortality, anti-feedant effect or growth inhibition) at 200 ppm [3]

CCS(=O)(=O)c1cc(C(F)(F)F)cnc1-c1nc2cc(C3CC3)cnc2n1C [Compound P6]
≥ 80%: mortality at 200 ppm [2] | percent control (mortality, anti-feedant effect or growth inhibition) at 200 ppm [3] | percent control (mortality, anti-feedancy or growth inhibition) at 12.5 ppm [4] | percent effect (mortality or growth inhibition) at 200 ppm [5] | mortality at 200 ppm [6] | mortality at 24 ppm [7] | percent effect (mortality or growth inhibition) at 200 ppm [12]
